Results: patent US7772228B2, “Method for treatment of bacterial infections with once or twice-weekly administered rifalazil” (priority 1998, dated 2010)
Values after ≈ are worked out from the molar mass of the structure shown. Read-outs that look alike come from different tables or passages of the source.

What was measured:
[1] = system: M. tuberculosis strain Erdman; settings: cited from earlier work; for reduction of bacterial load in lungs and spleens, comparison of drugs: 20 mg/kg, five times per week for four weeks
[2] = Clinical trial 005, WBC, ANC and platelet counts in tuberculosis patients; assay type: in vivo, human; settings: INH daily
Method: (§1) Definite diagnosis and evaluation of treatment efficacy requires direct examination of sputum for the presence of M. tuberculosis. The extent of M. tuberculosis infection is determined by number of bacteria able to form colonies and is expressed as colony forming units. When the number of colony forming units (CFU) is high, the infection is unhindered. When the CFU decreases, the number of active M. tuberculosis bacteria decreases. The CFU, typically expressed as Log10, have therefore important diagnostic and treatment evaluative value.
The four tables 17-20 show hematology data which are separated according to Groups 1-4. The group treatment corresponds to those seen in Table 16. […] In particular, the ANC value is considered to be a very meaningful safety index as it directly relates to a patient's ability to fight infection.
(§2) The overall clinical studies and conditions were similar to those described in Example 1. Due to ethical considerations, there were no placebo (control) patients in this study. […] Both latest regimens were experimental and performed under IND permit from FDA.

[3] = system: M. tuberculosis; test: Clinical trial 005, change in Log10 CFU/mL of sputum of tuberculosis patients; assay type: in vivo, human; settings: INH 400 mg daily, N 6
Method: Dosages of isoniazid and rifampin were adjusted to body weight of patients. […] When the patient's body weight was greater than 45 kg, isoniazid was administered as 600 mg/dose.
as §1
Dosages of isoniazid and rifampin depended on the patient's weight and were as above. The number of patients in each study group are presented as the N value.
as §2

[4] = in vivo; cited from earlier work
[5] = system: M. tuberculosis; settings: BACTEC, cited from earlier work; for MIC50 50% inhibition / MIC90 90% inhibition: thirty clinical isolates
[6] = system: M. avium; settings: 18 strains, agar dilution; cited from earlier work
[7] = system: M. tuberculosis; settings: 22 strains, agar dilution; cited from earlier work
[8] = system: extracellular M. tuberculosis; settings: cited from earlier work
[9] = system: M. tuberculosis in human macrophages; settings: intracellular, cited from earlier work
[10] = system: Helicobacter pylori; set-up: unit of the concentration uncertain; settings: time-kill, broth medium, 0.31 (unit uncertain); cited from earlier work

In the case of `CC[C@@H](CO)NCCN[C@@H](CC)CO` [EMB, ethambutol], the “cell counts in lungs compared to late controls” value ([1]; four weeks treatment) is given as “reduced cell counts in lungs”.
In the case of `NNC(=O)c1ccncc1` [INH, isoniazid], the “ANC Max” value ([2]; Day 4) is reported as 22.51 K/CU MM, the “ANC Mean (SD)” value ([2]; Day 4) is reported as 7.62 K/CU MM and the “ANC Med” value ([2]; Day 4) is reported as 5.47 K/CU MM. The “ANC Min” value ([2]; Day 4) was 3.79 K/CU MM, the “Platelets Max” value ([2]; Day 4) was 431.70 K/CU MM and the “Platelets Mean (SD)” value ([2]; Day 4) was 309.38 K/CU MM. For the same compound, the “Platelets Med” value ([2]; Day 4) was 305.56 K/CU MM, the “Platelets Min” value ([2]; Day 4) was 153.70 K/CU MM and the “WBC Max” value ([2]; Day 4) was 27.19 K/CU MM. The “WBC Mean (SD)” value ([2]; Day 4) was 10.88 K/CU MM, the “WBC Med” value ([2]; Day 4) was 8.81 K/CU MM and the “WBC Min” value ([2]; Day 4) was 6.37 K/CU MM. The “ANC Max” value ([2]; Day 8) was 9.32 K/CU MM, the “ANC Mean (SD)” value ([2]; Day 8) was 5.96 K/CU MM and the “ANC Med” value ([2]; Day 8) was 5.22 K/CU MM. For the same compound, the “ANC Min” value ([2]; Day 8) was 3.34 K/CU MM, the “Platelets Max” value ([2]; Day 8) was 396.20 K/CU MM and the “Platelets Mean (SD)” value ([2]; Day 8) was 310.13 K/CU MM. For the same compound, the “Platelets Med” value ([2]; Day 8) was 357.20 K/CU MM, the “Platelets Min” value ([2]; Day 8) was 185.60 K/CU MM and the “WBC Max” value ([2]; Day 8) was 12.06 K/CU MM. For the same compound, the “WBC Mean (SD)” value ([2]; Day 8) was 9.08 K/CU MM, the “WBC Med” value ([2]; Day 8) was 8.63 K/CU MM and the “WBC Min” value ([2]; Day 8) was 6.21 K/CU MM. For the same compound, the “ANC Max” value ([2]; Day 11) was 6.57 K/CU MM, the “ANC Mean (SD)” value ([2]; Day 11) was 5.29 K/CU MM and the “ANC Med” value ([2]; Day 11) was 5.06 K/CU MM. The “ANC Min” value ([2]; Day 11) was 4.17 K/CU MM, the “Platelets Max” value ([2]; Day 11) was 447.50 K/CU MM and the “Platelets Mean (SD)” value ([2]; Day 11) was 336.10 K/CU MM. For the same compound, the “Platelets Med” value ([2]; Day 11) was 354.20 K/CU MM, the “Platelets Min” value ([2]; Day 11) was 208.10 K/CU MM and the “WBC Max” value ([2]; Day 11) was 10.03 K/CU MM. The “WBC Mean (SD)” value ([2]; Day 11) was 8.29 K/CU MM, the “WBC Med” value ([2]; Day 11) was 8.10 K/CU MM and the “WBC Min” value ([2]; Day 11) was 7.27 K/CU MM. The “ANC Max” value ([2]; Day 15) was 8.84 K/CU MM, the “ANC Mean (SD)” value ([2]; Day 15) was 5.95 K/CU MM and the “ANC Med” value ([2]; Day 15) was 6.04 K/CU MM. The “ANC Min” value ([2]; Day 15) was 3.51 K/CU MM, the “Platelets Max” value ([2]; Day 15) was 412.70 K/CU MM and the “Platelets Mean (SD)” value ([2]; Day 15) was 298.59 K/CU MM. For the same compound, the “Platelets Med” value ([2]; Day 15) was 302.00 K/CU MM, the “Platelets Min” value ([2]; Day 15) was 184.60 K/CU MM and the “WBC Max” value ([2]; Day 15) was 12.40 K/CU MM. For the same compound, the “WBC Mean (SD)” value ([2]; Day 15) was 9.23 K/CU MM, the “WBC Med” value ([2]; Day 15) was 8.49 K/CU MM and the “WBC Min” value ([2]; Day 15) was 6.82 K/CU MM. For the same compound, the “ANC Max” value ([2]; Day 28) was 7.87 K/CU MM, the “ANC Mean (SD)” value ([2]; Day 28) was 5.63 K/CU MM and the “ANC Med” value ([2]; Day 28) was 4.60 K/CU MM. The “ANC Min” value ([2]; Day 28) was 4.41 K/CU MM, the “Platelets Max” value ([2]; Day 28) was 398.80 K/CU MM and the “Platelets Mean (SD)” value ([2]; Day 28) was 297.27 K/CU MM. The “Platelets Med” value ([2]; Day 28) was 266.00 K/CU MM, the “Platelets Min” value ([2]; Day 28) was 197.00 K/CU MM and the “WBC Max” value ([2]; Day 28) was 11.15 K/CU MM. The “WBC Mean (SD)” value ([2]; Day 28) was 8.31 K/CU MM, the “WBC Med” value ([2]; Day 28) was 7.06 K/CU MM and the “WBC Min” value ([2]; Day 28) was 6.70 K/CU MM. For the same compound, the “ANC Max” value ([2]; Day 42) was 7.2 K/CU MM, the “ANC Mean (SD)” value ([2]; Day 42) was 6.96 K/CU MM and the “ANC Med” value ([2]; Day 42) was 6.96 K/CU MM. The “ANC Min” value ([2]; Day 42) was 6.72 K/CU MM, the “Platelets Max” value ([2]; Day 42) was 345.00 K/CU MM and the “Platelets Mean (SD)” value ([2]; Day 42) was 297.10 K/CU MM. The “Platelets Med” value ([2]; Day 42) was 297.10 K/CU MM, the “Platelets Min” value ([2]; Day 42) was 249.20 K/CU MM and the “WBC Max” value ([2]; Day 42) was 9.23 K/CU MM. For the same compound, the “WBC Mean (SD)” value ([2]; Day 42) was 7.98 K/CU MM, the “WBC Med” value ([2]; Day 42) was 7.98 K/CU MM and the “WBC Min” value ([2]; Day 42) was 6.73 K/CU MM. For the same compound, the “cell counts in lungs compared to early controls” value ([1]; four weeks treatment) was “significantly reduced cell counts in lungs”, the “cell counts in lungs compared to late controls” value ([1]; four weeks treatment) was “reduced cell counts in lungs” and the “Change from Sputum Baseline to Day 15, Max” value [3] was −0.92 Log10 CFU/mL. The “Change from Sputum Baseline to Day 15, Mean (SD)” value [3] was −1.58 Log10 CFU/mL, the “Change from Sputum Baseline to Day 15, Med” value [3] was −1.63 Log10 CFU/mL and the “Change from Sputum Baseline to Day 15, Min” value [3] was −2.23 Log10 CFU/mL.
For `C[C@H]1COc2c(N3CCN(C)CC3)c(F)cc3c(=O)c(C(=O)O)cn1c23` [LEV], the “cell counts in lungs compared to late controls” value ([1]; four weeks treatment) is given as “reduced cell counts in lungs”.
For `NC(=O)c1cnccn1` [PZA, pyrazinamide], the “CFUs in the spleen” value ([1]; rifalazil 20 mg/kg, PZA 150 mg/kg, four weeks) is given as “did not significantly reduce CFUs compared to controls”.
For `CO[C@H]1/C=C/O[C@@]2(C)Oc3c(C)c(O)c4c(c3C2=O)C2=NC3(CCN(CC(C)C)CC3)NC2=C(NC(=O)/C(C)=C\C=C\[C@H](C)[C@H](O)[C@@H](C)[C@@H](O)[C@@H](C)[C@H](OC(C)=O)[C@@H]1C)C4=O` [Rifabutin, rifabutin, reference compound], the “adverse reactions at high doses” value [4] is given as “generalized arthralgia and uveitis occurred”, the incidence of neutropenia [4] is given as “significantly greater than in patients treated with placebo” and the skin discoloration [4] is given as < 1%. The “reduction of bacterial load in lungs and spleens, comparison of drugs” value [1] was “No significant differences”, the MIC ([5]; reference strain H37Rv) was 0.016 µg/mL (≈ 0.0189 µM) and the MIC ([5]; reference strain Kurono) was 0.016 µg/mL (≈ 0.0189 µM). For the same compound, the “MIC50 50% inhibition” value [5] was 0.063 µg/mL (≈ 0.0744 µM) and the “MIC90 90% inhibition” value [5] was 8.0 µg/mL (≈ 9.44 µM).
In the case of `CO[C@H]1/C=C/O[C@@]2(C)Oc3c(C)c(O)c4c(O)c(c(/C=N/N5CCN(C)CC5)c(O)c4c3C2=O)NC(=O)/C(C)=C\C=C\[C@H](C)[C@H](O)[C@@H](C)[C@@H](O)[C@@H](C)[C@H](OC(C)=O)[C@@H]1C` [Rifampin, rifampin, reference compound], the MIC90 [6] is listed as 100 µg/mL (≈ 122 µM), the “reduction of bacterial load in lungs and spleens, comparison of drugs” value [1] is listed as “No significant differences” and the MIC90 [7] is listed as 100 µg/mL (≈ 122 µM). The MBC ([8]; strain Atencio) was 0.25 µg/mL (≈ 0.304 µM), the MIC ([8]; strain Atencio) was 0.25 µg/mL (≈ 0.304 µM) and the MBC ([8]; strain Erdman) was 0.5 µg/mL (≈ 0.608 µM). For the same compound, the MIC ([8]; strain Erdman) was 0.12 µg/mL (≈ 0.146 µM), the MBC ([8]; strain H37Rv) was 0.5 µg/mL (≈ 0.608 µM) and the MIC ([8]; strain H37Rv) was 0.12 µg/mL (≈ 0.146 µM). The MBC ([9]; strain Atencio) was 0.5 µg/mL (≈ 0.608 µM), the MIC ([9]; strain Atencio) was 0.25 µg/mL (≈ 0.304 µM) and the MBC ([9]; strain Erdman) was 0.5 µg/mL (≈ 0.608 µM). For the same compound, the MIC ([9]; strain Erdman) was 0.12 µg/mL (≈ 0.146 µM), the MBC ([9]; strain H37Rv) was 1.0 µg/mL (≈ 1.22 µM) and the MIC ([9]; strain H37Rv) was 0.25 µg/mL (≈ 0.304 µM). The MIC ([5]; reference strain Kurono) was 0.063 µg/mL (≈ 0.0766 µM), the “MIC50 50% inhibition” value [5] was 4.0 µg/mL (≈ 4.86 µM) and the “MIC90 90% inhibition” value [5] was >128.0 µg/mL.
For `CC1(C)S[C@@H]2[C@H](NC(=O)[C@H](N)c3ccc(O)cc3)C(=O)N2[C@H]1C(=O)O` [amoxicillin, reference compound], the “decrease in CFU/mL after 24 hours” value [10] is given as 1 log.
